This series can be described thus: PK test of compounds (mouse). It counts as in vivo, ICR mice. On the procedure:
The mice were not fed until 5 pm on the day before administration, and fasted overnight with water. The mice in Group IV were administered with 2 mg/kg, while those in Group PO were administered with 10 mg/kg. Feeding was resumed 2 hours after administration. For mice administered by gavage, 20 μL blood was collected from the saphenous vein in calf before administration and 0.25, 0.5, 1, 2, 4, 8, and 24 hours after administration, respectively, and placed in EDTA-K2 anticoagulant blood collection tubes, and then the blood would be placed on ice until centrifuged to obtain plasma samples. The plasma samples were centrifuged at 4° C. (3500 rpm, 10 min), and after separation, the samples were transferred to EP tubes and stored at −80° C. for detection. For mice admistrated by intravenous injection, 20 μL blood was collected from the saphenous vein in calf before administration and 0.0833, 0.25, 0.5, 1, 2, 4, 8 and 24 hours after administration, respectively, and placed in EDTA-K2 anticoagulant blood collection tubes, and then the blood would be placed on ice until centrifuged to obtain a plasma sample. The plasma samples were centrifuged at 4° C. (3500 rpm, 10 min), and after separation, the samples were transferred to EP tubes and stored at −80° C. for detection. The level of tested compounds in blood plasma of mice, who had orally administrated with different concentrations of drugs were determinated: 10 μL mouse blood at each time point after administration was taken, 100 μL methanol containing an internal standard (100 ng/mL) was added, vortex mixed for 1 minute, centrifuged at 4° C. (12000 rmp, 5 minutes), and 1 μL supernatant was taken from the plasma samples for LC-MS/MS analysis.

The values that follow come from patent US20250376481A1, “POLYCYCLIC CARBAMOYL PYRIDONE DERIVATIVE, PREPARATION METHOD THEREFOR AND PHARMACEUTICAL COMPOSITION THEREOF” (NANJING AIDEA PHARMACEUTICAL TECHNOLOGY CO., LTD., priority 2021, published 2025).

One may read the half-life as how long it takes for the measured level to halve. For orientation: bioavailability means dose-corrected exposure relative to a reference, in per cent. A high value points to good availability.

Turning to `C[C@H]1N2C(=O)c3c(O)c(=O)c(C(=O)NCc4ccc(F)cc4F)cn3C[C@@H]2OCC12CC2` [Compound 1], the “bioavailability (in words)” value (PK test in mice) was “good bioavailability”. Besides, the half-life (male, mouse, plasma, ICR mice, PO 10 mg/kg) is 4.37 ± 0.47 h. Also, where the note is “male, mouse, plasma, ICR mice, PO 10 mg/kg (IV 2 mg/kg)”, the bioavailability was 57%.
